# In patent US20060281071A1, “Stearoyl-CoA desaturase assay” (priority 2005, published 2006):
# How the values were obtained:
# mSCD3 [1] = biological target: T1, mSCD3 (Mus musculus, UniProt Q99PL7, V119A); assay: Conversion of saturated fatty acids to Δ9 monounsaturated fatty acids in ole1 yeast L8-14C expressing mSCD3 (GLC); assay type: cell-based; set-up: Cloning of the full-length human and mouse SCD cDNAs: The full coding region of human SCDs; expressed in transfected cells; host or cells: Saccharomyces cerevisiae L8-14C (ole1 disruptant), vector p426GPD; details: for conversion of exogenous saturated fatty acid to Δ9 monounsaturated fatty acid: exogenous fatty acid 0.2 mM, 1% tergitol NP-40, yeast cultured 2 days (FIG. 2)
# T1 sequence (Q99PL7 1-359 V119A): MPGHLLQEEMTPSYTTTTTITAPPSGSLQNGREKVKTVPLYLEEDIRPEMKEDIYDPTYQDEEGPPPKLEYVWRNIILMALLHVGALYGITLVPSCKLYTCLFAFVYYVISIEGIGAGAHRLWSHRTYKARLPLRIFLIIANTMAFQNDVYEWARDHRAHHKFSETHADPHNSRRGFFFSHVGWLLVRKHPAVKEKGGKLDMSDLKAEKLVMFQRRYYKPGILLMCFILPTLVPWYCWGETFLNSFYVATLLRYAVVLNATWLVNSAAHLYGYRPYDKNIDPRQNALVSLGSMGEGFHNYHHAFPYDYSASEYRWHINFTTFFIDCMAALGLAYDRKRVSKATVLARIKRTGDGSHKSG
# mSCD3 [2] = biological target: T1, mSCD3; assay: Δ9-desaturase activity in microsomes of Hela cells over-expressing mSCD3; assay type: biochemical; set-up: Cloning of the full-length human and mouse SCD cDNAs: The full coding region of human SCDs; expressed in transfected cells; details: Hela microsomes 100 μg, 14C-acyl-CoA, NADH (FIG. 3)
Compound,conversion of exogenous saturated fatty acid to Δ9 monounsaturated fatty acid (mSCD3 [1]),other results
"CCCCCCCCCCCCC(=O)O [13:0, tridecanoic acid]",32%,–
"CCCCCCCCCCCCCC(=O)O [14:0, myristic acid]",more than 50%,–
"CCCCCCCCCCCCCCCC(=O)SCCNC(=O)CCNC(=O)[C@H](O)C(C)(C)COP(=O)(O)OP(=O)(O)OC[C@H]1O[C@@H](n2cnc3c(N)ncnc32)[C@H](O)[C@@H]1OP(=O)(O)O [16:0-CoA, palmitoyl-CoA]",–,Δ9-desaturase activity towards 16:0-CoA relative to 18:0-CoA (mSCD3 [2]): 16 fold
CCCCCCCCCCCCCCCC(=O)O [16:0],–,"% conversion of fatty acid to Δ9 monounsaturated fatty acid (mSCD3 [1]; endogenous fatty acid, L8-14C transformant, YPD lacking unsaturated fatty acids, 3 days): 49%"
"CCCCCCCCCCCCCCCCC(=O)O [17:0, heptadecanoic acid]",undetectable,–
"CCCCCCCCCCCCCCCCCCCC(=O)O [C20:0, eicosanoic acid]",None of Δ9-desaturase was able to utilize,–
